{"source": "patent US20020018768A1", "about": "“Control of gene expression” (YISSUM RESEARCH DEVELOPMENT COMPANY OF THE HEBREW …, priority 1999, published 2002)", "system": "CFTR transcripts carrying the 3849+10 kb C→T mutation in 091398K cells", "assay": "Splicing of native CFTR transcripts in 091398K nasal polyp epithelial cell line after transient transfection with splicing factors (DAC-30)", "format": "cell-based", "conditions": "transfection efficiency ~60%, untreated 21%", "from_the_text": "A polyp sample from a CF patient, compound heterozygous for the splicing mutation 3849+10 kb C→T and the W 1282X mutations was obtained. This patient suffered from nasal polyps and underwent nasal polypectomy. An epithelial cell line (091398K) was established from the polyp sample in collaboration with Dr. J. Yankaskas from the University of North Carolina. […] Thus a system in which the effect of splicing factors or) a native CFTR gene could be studied, was established.\nTransient transfections of 091398 k cells with cellular factors were performed, using DAC-30. […] The viral factor E4-oRF3 slightly promoted exon inclusion and led to an increase in, the level of aberrantly spliced transcripts (21% to 28%). Thus, the mean effect could have reached ˜35%.", "data": [{"substance": "ASF/SF2: cellular SR protein splicing factor, overexpressed by transient transfection", "values": [{"measurement": "level of aberrantly spliced CFTR transcripts after overexpression", "value": 11, "unit": "%"}]}]}
